Source: ChEMBL document CHEMBL4342498, “Design and Discovery of an Orally Efficacious Spiroindolinone-Based Tankyrase Inhibitor for the Treatment of Colon Cancer” (J Med Chem, 2020)

What was measured:
[1] = molecular target: T1, Poly [ADP-ribose] polymerase tankyrase-2 (Homo sapiens, UniProt Q9H2K2); test: Inhibition of recombinant human N-terminal TEV cleavage site-fused/FLAG-poly his-tagged TNKS2 ARC5-SAM-PARP domain (613 to 1166 residues) expressed in Escherichia coli assessed as reduction in auto-PARylation preincubated for 10 mins followed by biotinylated-NAD+ addition and measured after 45 mins by ELISA
T1 sequence (Q9H2K2 whole entry): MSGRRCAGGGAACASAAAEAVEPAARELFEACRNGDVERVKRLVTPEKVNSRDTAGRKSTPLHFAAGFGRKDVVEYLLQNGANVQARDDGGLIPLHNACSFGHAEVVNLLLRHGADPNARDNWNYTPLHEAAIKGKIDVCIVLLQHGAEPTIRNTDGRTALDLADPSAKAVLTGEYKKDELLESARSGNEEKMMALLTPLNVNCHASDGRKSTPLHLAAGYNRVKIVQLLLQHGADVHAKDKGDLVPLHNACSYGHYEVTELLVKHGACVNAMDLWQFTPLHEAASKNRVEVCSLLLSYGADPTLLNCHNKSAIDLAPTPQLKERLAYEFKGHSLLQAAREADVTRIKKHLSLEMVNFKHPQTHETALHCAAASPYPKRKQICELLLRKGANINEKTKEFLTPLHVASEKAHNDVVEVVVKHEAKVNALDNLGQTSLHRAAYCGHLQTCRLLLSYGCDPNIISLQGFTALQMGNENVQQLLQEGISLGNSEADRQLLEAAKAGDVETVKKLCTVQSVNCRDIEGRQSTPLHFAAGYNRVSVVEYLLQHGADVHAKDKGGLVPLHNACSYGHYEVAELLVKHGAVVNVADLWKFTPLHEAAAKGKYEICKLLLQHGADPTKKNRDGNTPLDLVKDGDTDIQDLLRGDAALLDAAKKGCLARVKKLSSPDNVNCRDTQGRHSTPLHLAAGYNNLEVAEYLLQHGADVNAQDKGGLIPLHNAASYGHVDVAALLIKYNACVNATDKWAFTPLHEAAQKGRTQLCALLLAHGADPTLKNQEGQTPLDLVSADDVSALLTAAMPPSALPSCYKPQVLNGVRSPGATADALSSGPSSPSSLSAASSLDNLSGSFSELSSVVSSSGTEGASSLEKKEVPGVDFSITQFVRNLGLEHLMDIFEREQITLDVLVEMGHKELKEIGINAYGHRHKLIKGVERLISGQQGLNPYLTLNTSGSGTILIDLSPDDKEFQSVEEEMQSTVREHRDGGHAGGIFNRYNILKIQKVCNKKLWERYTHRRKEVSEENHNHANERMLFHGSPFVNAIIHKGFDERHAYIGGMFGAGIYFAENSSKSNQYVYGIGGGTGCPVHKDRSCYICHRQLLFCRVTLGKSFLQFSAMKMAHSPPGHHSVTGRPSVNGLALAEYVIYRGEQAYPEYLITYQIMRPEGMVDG

COLO 320DM = test: Antiproliferative activity against human COLO320DM cells assessed as inhibition of cell growth measured after 4 days by CellTiter-Glo assay; assay type: functional; conditions: 96 h
[2] = Permeability of the compound measured after 4 hrs by PAMPA; assay type: ADME; conditions: read-out: permeability
[3] = Stability in mouse liver microsomes assessed as parent compound remaining at 1 uM measured after 30 mins in presence of NADPH by LC-MS/MS analysis; assay type: ADME, Microsome; conditions: read-out: Stability
[4] = Stability in human liver microsomes assessed as parent compound remaining at 1 uM measured after 30 mins in presence of NADPH by LC-MS/MS analysis; assay type: ADME, Microsome; conditions: read-out: Stability
[5] = Stability in human liver microsomes assessed as parent compound remaining at 1 uM measured after 60 mins in presence of NADPH by LC-MS/MS analysis; assay type: ADME, Microsome; conditions: read-out: Stability
[6] = Efflux ratio of permeability across basolateral to apical side over apical to basolateral side in MDCK2 cells; assay type: ADME, cell-based, Canis lupus familiaris, MDCK-II; conditions: dog, mdck
[7] = Net efflux ratio of permeability across basolateral to apical side over apical to basolateral side in MDCK2-MDR1 cells to MDCK2 cells; assay type: ADME, cell-based, Canis lupus familiaris; conditions: dog, mdck
[8] = Tmax in ICR mouse at 50 mg/kg, ip; assay type: ADME, organism-based; conditions: in vivo
[9] = Cmax in ICR mouse at 50 mg/kg, po; assay type: ADME, organism-based; design: dose 50 mg/kg, route oral; conditions: in vivo
[10] = AUC (infinity) in ICR mouse at 50 mg/kg, po; assay type: ADME, organism-based; design: dose 50 mg/kg, time infinity, route oral; conditions: in vivo
Tankyrase 1/2 = molecular target: T2, Tankyrase 1/2 (Homo sapiens, UniProt Q9H2K2+O95271)
T2 sequence (Q9H2K2 whole entry): T1 sequence (Q9H2K2 whole entry)
T2 sequence (O95271 whole entry): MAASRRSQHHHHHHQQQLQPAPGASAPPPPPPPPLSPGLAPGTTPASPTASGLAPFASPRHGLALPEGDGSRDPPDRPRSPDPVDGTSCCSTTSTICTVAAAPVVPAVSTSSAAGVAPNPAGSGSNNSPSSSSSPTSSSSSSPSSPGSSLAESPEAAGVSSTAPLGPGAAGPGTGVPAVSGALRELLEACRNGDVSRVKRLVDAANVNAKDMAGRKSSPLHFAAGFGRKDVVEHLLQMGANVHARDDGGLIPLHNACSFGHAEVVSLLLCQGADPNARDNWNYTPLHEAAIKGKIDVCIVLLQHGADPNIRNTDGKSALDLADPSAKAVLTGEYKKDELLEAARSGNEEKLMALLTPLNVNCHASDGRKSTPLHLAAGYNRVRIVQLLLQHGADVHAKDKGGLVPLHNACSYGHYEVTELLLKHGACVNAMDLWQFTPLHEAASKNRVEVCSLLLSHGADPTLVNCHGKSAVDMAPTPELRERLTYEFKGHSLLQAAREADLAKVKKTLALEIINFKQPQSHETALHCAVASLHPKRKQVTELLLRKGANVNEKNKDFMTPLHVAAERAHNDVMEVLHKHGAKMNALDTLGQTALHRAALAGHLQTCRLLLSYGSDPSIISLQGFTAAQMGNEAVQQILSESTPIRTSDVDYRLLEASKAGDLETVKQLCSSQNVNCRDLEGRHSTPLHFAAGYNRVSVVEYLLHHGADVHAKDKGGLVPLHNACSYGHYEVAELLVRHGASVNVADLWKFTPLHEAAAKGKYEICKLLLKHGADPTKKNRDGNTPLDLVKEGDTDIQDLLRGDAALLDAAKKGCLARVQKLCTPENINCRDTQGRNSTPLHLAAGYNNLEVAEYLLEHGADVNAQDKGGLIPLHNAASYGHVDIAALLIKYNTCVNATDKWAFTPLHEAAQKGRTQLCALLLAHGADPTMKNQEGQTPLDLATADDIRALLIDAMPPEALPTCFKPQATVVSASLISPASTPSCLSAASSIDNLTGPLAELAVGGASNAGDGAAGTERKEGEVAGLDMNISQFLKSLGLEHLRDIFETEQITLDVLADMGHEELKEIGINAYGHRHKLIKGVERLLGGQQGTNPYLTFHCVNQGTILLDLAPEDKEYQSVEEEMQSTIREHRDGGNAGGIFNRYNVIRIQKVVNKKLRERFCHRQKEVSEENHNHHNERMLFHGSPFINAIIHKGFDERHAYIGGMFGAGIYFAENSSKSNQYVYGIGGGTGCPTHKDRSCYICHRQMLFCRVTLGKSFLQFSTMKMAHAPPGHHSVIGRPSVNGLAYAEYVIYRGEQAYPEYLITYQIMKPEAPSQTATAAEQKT
Description: Inhibition of TNKS/TNKS2 (unknown origin) expressed in human DLD1 cells assessed as reduction in Wnt-signaling measured after 24 hrs by TCF-luciferase reporter gene assay

IC50 [1]	GI50 (COLO 320DM)	Papp at 4 h [2]	remaining at 0.5 h, 1 µM [3]	remaining at 0.5 h, 1 µM [4]	remaining at 1 h, 1 µM [5]	efflux ratio [6]	Ratio [7]	Tmax [8]	Cmax [9]	AUC(0-inf) [10]	IC50 (Tankyrase 1/2)	SMILES
39.2 nM	230 nM	12.4 ×10⁻⁶ cm/s	49.7%	73%	28.7 to 55.9%	0.9	1.1	60 min	121 µM	594 µM·h	3.1 nM	C[C@@H]1CN(c2cc(F)c3c(c2)N(C)C(=O)C32CCN(c3nc4c(c(=O)[nH]3)CCCN4C)CC2)C[C@H](C)O1
12.3 nM	190 nM	12.8 ×10⁻⁶ cm/s	54.9%	72.7%	30.5 to 54.5%	3.1	4.3	30 min	21.2 µM	77 µM·h	8.4 nM	CN1CCN(c2cc(F)c3c(c2)N(C)C(=O)C32CCN(c3nc4c(c(=O)[nH]3)CCCN4C)CC2)CC1
